melting point [°C] | Structure (SMILES)
101 | O=C(c1ccccc1)c1ccc2c3c(cccc13)CC2
38 to 39 | Brc1cccc(COc2ccccc2)c1
59.5 | O=C(c1ccccc1O)c1ccccc1O
244 | COc1cc(C2c3cc4c(cc3C(OC3OC5COC(c6cccs6)OC5C(O)C3O)C3COC(=O)C23)OCO4)cc(OC)c1O (stereo not drawn)
295 | Cn1c(=O)c(C2=NNC(=O)C2=C2c3ccccc3-c3ccccc32)c(O)c2ccccc21
39 to 41.5 | CNCc1ccc(-c2ccccc2)nc1
42 | S=C=Nc1ccc(Oc2ccccc2)cc1
71 | N#Cc1ccc(Br)cc1F
227 | O=c1oc2c(o1)=C(c1ccccc1)S(=O)(=O)C=2c1ccccc1
-28 | CSCc1ccccc1
106 | Nc1ccccc1/C=C/c1ccccc1
63 | Cc1cc2ccccc2c(Br)c1C
40 | N#CCc1ccc(C(F)(F)F)cc1[N+](=O)[O-]
115 | NNc1cc(Cl)cc(Cl)c1
82 | O=C1Nc2ccccc2/C1=C/c1ccccc1[N+](=O)[O-]
84 to 86 | O=Cc1ccccc1OCc1ccccc1Cl
177 | COc1ccc2c(OC)c3ccoc3nc2c1OC
58 to 59 | OCCN1CCN(c2ncc(Cl)cc2C(F)(F)F)CC1
149 to 151 | O=C(Nc1ccccc1)Nc1nnc(C(F)(F)F)s1
81.5 | CN(C)C(=O)COC(=O)c1ccccc1

melting point [°C] | Structure (SMILES)
134 | COC(=O)C1c2ccccc2C(=O)OC1c1ccc([N+](=O)[O-])cc1 (stereo not drawn)
112 to 113 | CC(=O)Nc1ccccc1C(=O)CCl
115 | O=C1OC(=O)c2cc([N+](=O)[O-])ccc21
176 | Cc1ccc(C(=O)c2csc(S(N)(=O)=O)c2)cc1
160 to 162 | Cc1cc(C)cc(P(c2cc(C)cc(C)c2)c2cc(C)cc(C)c2)c1
111 to 113 | CSC(=Nc1nnc(-c2ccccc2)s1)SC
194 | CCOc1ccc(-c2nnc3n2NC(c2ccccc2OC)S3)cc1 (stereo not drawn)
247 to 249 | Nc1nc2ccc([N+](=O)[O-])cc2s1
95 | CC1(C)C(=O)OC2=C(CCCC2)C1c1ccccc1 (stereo not drawn)
240 | Nc1c(O)cccc1C(=O)O
115 | CC1CCC(C(C)C)C(OC(=O)C(C(=O)c2ccccc2)c2ccccc2)C1 (stereo not drawn)
104 | COc1ccc(C2C3=C(CCCC3)OC3=C2CCCC3)cc1
175 to 178 | O=Cc1ccc(F)c(C(=O)O)c1
163 | OC(c1ccccc1)C(O)(c1ccccc1)c1ccccc1 (stereo not drawn)
162 | NS(=O)(=O)c1ccc(F)c(C(F)(F)F)c1
220 to 222 | NC(=O)c1sc(Nc2ccc(Cl)cc2)nc1N
98 to 100 | OCc1ccccc1Cn1cncn1
175 | Cc1cc(/C=C/c2ccccc2N)c([N+](=O)[O-])cc1[N+](=O)[O-]
97 | O[C@@H]1CCCC/C=C\c2ccccc21
286 to 288 | Sc1ncnc2c1cnn2-c1ccccc1

melting point [°C] | Structure (SMILES)
104 to 105 | Cc1nn(-c2ccccc2)nc1C(=O)Cl
124 | CC(C(=O)O)c1ccc(C(=O)c2cccs2)cc1 (stereo not drawn)
127 to 128 | CN(C)c1ccc(C=C/C(=N\Nc2ccccc2)c2ccccc2)cc1
300 | Nc1ccc2cc(S(=O)(=O)O)cc(S(=O)(=O)O)c2c1
284 to 288 | O=[N+]([O-])c1ccc2c(c1)-c1cccc([N+](=O)[O-])c1C2
210 | N#CC1=C(N)Oc2c(c(C(F)(F)F)nn2-c2ccccc2)C1c1ccc(Cl)cc1Cl (stereo not drawn)
69 | c1ccc(SCCSc2ccccc2)cc1
269 to 270 | O=c1[nH]c2scc(-c3ccccc3)c2c(=O)n1-c1cccc(Cl)c1
230 | COc1cc(C=NNC(=O)CCn2c(C)nc3ccccc32)ccc1O
25 | CC1CCCCN1CCCOC(=O)c1ccc(Cl)c(Cl)c1 (stereo not drawn)
20 | CCC(=O)Oc1ccccc1
70 to 71 | Nc1ccccc1CN1CCOCC1
150 | Clc1cc(-c2ccccn2)nc(-c2ccccn2)c1
202 to 204 | Nc1nnc(-c2ccc([N+](=O)[O-])cc2)s1
40.5 to 43 | CCCCCOc1ccc(/N=N/c2ccc(CCCC)cc2)cc1
126 | CC1(C)CC(=O)c2c(C(=O)c3ccc(Cl)cc3)noc2C1
220 | c1ccc(C2Nn3c(nnc3-c3cccnc3)S2)cc1 (stereo not drawn)
45 | BrC(c1ccccc1)c1ccccc1

Continued, molecule first:

Structure (SMILES) | melting point [°C]
Nc1c[nH]c(=O)[nH]c1=O | 300
CC12CCCCC1CCC1C2CCC2(C)C1CCC21OCCO1 (stereo not drawn) | 143
CC(C)(C)OC(=O)NC1(C(=O)O)CCc2ccccc21 (racemic) | 156 to 159
COC(=O)c1cc2cc3c(cc2cc1C(=O)OC)CC3 | 124
NNCCO | -70
Cc1nc(-c2cc(C(=O)Cl)no2)cs1 | 89 to 91
O=C(CCl)c1cc(C(=O)CCl)c([N+](=O)[O-])cc1[N+](=O)[O-] | 148
CC12CCC(C(O)=CC1=O)C2(C)C (stereo not drawn) | 221
CCCCOC(=O)CC(=O)OCCCC | -83
CC(C)CSCC(C)C | -106
CC1=C(C(=O)O)CCCO1 | 119
CCCCC(=O)OC1(C(=O)CO)CCC2C3CCC4=CC(=O)CCC4(C)C3C(O)CC21C (stereo not drawn) | 218
Sc1cc(Cl)cc(Cl)c1 | 59 to 61
CC(=O)C(C(C)=O)=C1SCCS1 | 91
CC1CCC(=O)C1=O (stereo not drawn) | 105 to 110
Cc1ccccc1OP(=O)(Oc1ccccc1C)Oc1ccccc1C | -25
Cc1c(C)c2c(c3c1CC3)CC2 | 105 to 116
CC1CCNCC1 | 5
CCC[N+](=O)[O-] | -108
CCCCCCCCCCCCCCCC(=O)OCCCC | 16.9
CC(=O)Nc1ccsc1C(=O)O | 200 to 202
COc1ccc(C(N)=S)cc1 | 148 to 152
O=C(O)C1=CCCCC1 | 38
O=C1CCC2CC1CCC2=O | 151
COc1ccc(CC(=O)C(=O)O)cc1 | 194

Structure (SMILES) | melting point [°C]
CCOC(N)=S | 41
Clc1c(Cl)c(Cl)c2ccccc2c1Cl | 198
COCc1ccc(O)c([N+](=O)[O-])c1 | 123
O=C(NC1CCCCC1)C(Br)(C(F)(F)F)C(F)(F)F | 87
CC(=O)Oc1ccc(C(C)=O)c(O)c1 | 57 to 59
C1CCC(CCCC2CCCCC2)CC1 | -17
O=C(O)Cc1cccnc1 | 144
O=C(C(Br)Br)C(Br)(Br)Br | 79.5
CCCCCCCC(=O)CC | 2.5
Cc1ccc2cc[nH]c2c1 | 31
CC(C(=O)O)c1ccc(CBr)cc1 (stereo not drawn) | 123 to 128
FC=C(F)F | -78
CCOC(=O)c1ccc(N2C(=O)CCC2=O)cc1 | 158 to 160
Cc1c([N+](=O)[O-])cc(N)cc1[N+](=O)[O-] | 171
O=Cc1ncc[nH]1 | 209
C=C1C(C(=O)O)C1C(=O)O (stereo not drawn) | 197 to 201
NS(=O)(=O)c1ccc(SCCO)cc1 | 112
Fc1cc(I)ccn1 | 58
CCCCCCN(CCCCCC)C(=O)COC(=O)c1ccccc1 | 162
CC(C)(C)c1cc(C(C)(C)C)c([N+](=O)[O-])c(C(C)(C)C)c1 | 205 to 206
CC12CCC(C(=CC(Cc3ccccc3)C(=O)O)C1=O)C2(C)C (stereo not drawn) | 127
CCOc1ccc(CCO)cc1 | 42
O=C(O)CCCCc1cccs1 | 41
CC1(C)OC2CC(=O)OCC23C1CC(=O)C1(C)C3CCC2(C)C(c3ccoc3)OC(=O)C3OC321 (stereo not drawn) | 298
COC(=O)C(C)O (stereo not drawn) | -66

Structure (SMILES) | melting point [°C]
O=C(O)Cc1ccsc1 | 79
CC1OC(n2cc(F)c(=O)[nH]c2=O)C(O)C1O (stereo not drawn) | 190
FC(Cl)C(Cl)(Cl)Cl (stereo not drawn) | -95.3
O=C(O)c1csc2ccc(Br)cc12 | 284 to 287
C=CCc1cc(OC)c(O)c(C(=O)NCCO)c1 | 95
CCCCCCCC/C=C\CCCCCCCC#N | -1
CC12CCC=C1C1CCC3=CC(=O)CCC3(C)C1CC2 (stereo not drawn) | 117
O=C(O)c1ccc(N2CCCC2)cc1 | 230
C#CC1(O)CCC2C3CCC4=CC(O)CCC4(C)C3CCC21C (stereo not drawn) | 204
Cc1ccc(S)cc1 | 43
C=C[Si](OCCOC)(OCCOC)OCCOC | -30
NC(=O)C1=CN(C2OC(COP(=O)(O)OP(=O)(O)OCC3OC(n4cnc5c(N)ncnc54)C(O)C3O)C(O)C2O)C=CC1 (stereo not drawn) | 141
Cc1c(Cl)cc([N+](=O)[O-])cc1Cl | 63 to 64
COc1ccc(Br)c([N+](=O)[O-])c1 | 31
O=C(CCl)Oc1ccccc1 | 44.5
CCCCCC#CCO | -18
FC(F)=C(Cl)Cl | -116
NS(=O)(=O)c1ccc(SCCO)c([N+](=O)[O-])c1 | 151
NC(=S)c1ccc(C2OCCO2)cc1 | 150 to 154
CS(=O)(=O)c1ccc(Br)cc1 | 102 to 105
NC(=O)C(CCN1CCCCCC1)(c1ccccc1)c1ccccc1 | 142
O=C(O)C=Cc1ccco1 | 143
CCCCCC1C(=O)CCC1CC(=O)OC (stereo not drawn) | -10
CCNC(=O)C1CC(C)CCC1C(C)C (stereo not drawn) | 88
CCOC(C)=NOc1ccc([N+](=O)[O-])cc1[N+](=O)[O-] | 112
